Data from patent US20190105381A1, “METHOD FOR PREPARING VIRAL PARTICLES WITH CYCLIC DINUCLEOTIDE AND USE OF SAID PARTICLES FOR TREATING CANCER” (priority 2016, published 2019).

Tests used:
HEK293 cells = format: cell-based, human; conditions: for IFN response in target cells under pharmacological inhibition: cells treated 1 hour prior to infection, 5 μM, MOI=1; for effect on IFN induction by HIV-1-GFP: cGAS-reconstituted producer cells treated during virus preparation, 20 μM GW4869, 60 μM Ac-DEVD-CHO
[1] = system: Ova-specific CD8+ T cells; assay: CD8+ T cell responses after subcutaneous immunization (tetramer, IFN-g ELISPOT); format: in vivo, mice; conditions: cGAMP at a far higher dose of cGAMP
[2] = system: IFNβ promoter reporter (p125-F-Luc); format: cell-based, human; conditions: HEK293 cells transfected with 2 μg 2′-3′-cGAMP, 24 hours

Compound: Cc1nnc(C(=O)NC(C)(C)c2nc(C(=O)NCc3ccc(F)cc3)c(O)c(=O)n2C)o1 [raltegravir]
- IFN response in target cells under pharmacological inhibition (HEK293 cells): independent of reverse transcription and integration

Compound: Ac-DEVD-CHO
- effect on IFN induction by HIV-1-GFP (HEK293 cells): did not diminish IFN induction

Compound: Nc1nc2c(ncn2[C@@H]2O[C@@H]3COP(=O)(O)O[C@H]4[C@@H](O)[C@H](n5cnc6c(N)ncnc65)O[C@@H]4COP(=O)(O)O[C@@H]2[C@@H]3O)c(=O)[nH]1 [cGAMP, 2′-3′-cyclic GMP-AMP]
- tumor-specific T cell response [1]: not able to significantly induce
- IFN induction in response to cGAMP [2]: induce IFN

Compound: Cc1ccnc2c1NC(=O)c1cccnc1N2C1CC1 [nevirapine]
- IFN response in target cells under pharmacological inhibition (HEK293 cells): independent of reverse transcription and integration

Compound: O=C(/C=C/c1ccc(/C=C/C(=O)Nc2ccc(C3=NCCN3)cc2)cc1)Nc1ccc(C2=NCCN2)cc1 [GW4869]
- effect on IFN induction by HIV-1-GFP (HEK293 cells): did not diminish IFN induction
